According to patent publication US8642265B2, “Compositions and methods for the detection of topoisomerase II complexes with DNA” (The Children's Hospital of Philadelphia, priority 2004, dated 2014):

Tests used:
[1] = molecular target: T1, DNA topoisomerase II cleavage complexes in K562 cells (Homo sapiens, UniProt P11388); assay: Modified ICE bioassay in K562 cells; assay type: cell-based; conditions: for induction of DNA topoisomerase II cleavage complexes: 20 μM
T1 construct: endogenous in cells; host or cells: K562 cells
Method: (§1) After flash-freezing and thawing at 37° C., the DNA was sheared by passage through a 251/2 G needle. […] The pellet was dissolved in 200 μl of 10 mM Tris-HCl (pH 8.0) 1 mM EDTA buffer, the DNA was quantified and 5.6 μg of DNA was analyzed on a Western blot with a mouse anti-human DNA topoisomerase IIα antibody (DAKO, Glostrup, Denmark) to detect DNA topoisomerase IIα-bound DNA (11).
(§2) However, doxorubicin is an intercalative DNA topoisomerase II poison that induces DNA topoisomerase II cleavage with different sequence site-selectivity (Capranico et al., 1990) and that also is associated with leukemia as a treatment complication, albeit less often (Sandoval et al., 1993).

[2] = molecular target: T2, DNA topoisomerase II covalent complexes in KG1 cells (Homo sapiens, UniProt P11388); assay: Modified ICE bioassay in KG1 cells; assay type: cell-based; conditions: doxorubicin at 100 μM
T2 construct: endogenous in cells; host or cells: KG1 (KG-1) cells
Method: The assays were performed on CEM cells (FIG. 7A), K562 cells (FIGS. 7B and 7C), and KG-1 cells (FIG. 7D).
as §1, §2

[3] = molecular target: human DNA topoisomerase IIα (Homo sapiens, UniProt P11388); assay: DNA topoisomerase II in vitro cleavage assay; conditions: for cleavage at MLL bcr position 6588 over cleavage without drug (enzyme-only): drug at 20 μM, 10 min 37° C.
[4] = molecular target: DNA topoisomerase II cleavage complexes in CEM cells (Homo sapiens, UniProt P11388); assay: Modified ICE (in vivo complex of enzyme) bioassay in CEM cells; conditions: 20 μM, 2 hours
[5] = molecular target: T3, DNA topoisomerase II covalent complexes in ex vivo expanded CD34+ cells (Homo sapiens, UniProt P11388); assay: Modified ICE bioassay in ex vivo expanded CD34+ cells; assay type: cell-based; conditions: 2 hours, etoposide 100 μM
T3 construct: endogenous in cells; host or cells: primary human bone marrow CD34+ cells, expanded ex vivo
Method: as §1

[6] = tested on: ex vivo expanded CD34+ cells; assay: Cell viability by Trypan Blue exclusion; assay type: cell-based, human; conditions: etoposide 2 hours, same for untreated
Method: as §1
Cell viability assessed by Trypan blue exclusion was ˜70% for both conditions. As predicted in proliferating cells (6), native DNA topoisomerase II covalent complexes were detected in the untreated cells. […] The DNA topoisomerase IIα protein ran higher than its known molecular weight of 170 kDa, which is consistent with the presence of DNA bound to the enzyme.

[7] = molecular target: T4, DNA topoisomerase II cleavage complexes with the MLL bcr in CD34+ cells (Homo sapiens, UniProt P11388); assay: MLL bcr oligonucleotide microarray (XEOCHIP) of DNA topoisomerase II-bound DNA; assay type: cell-based; conditions: 100 μM, Q-Q plot
T4 construct: endogenous in cells; host or cells: primary human bone marrow CD34+ cells, expanded ex vivo
Text: Employing XEOCHIP™ technology (Xeotron, Houston, Tex.), a first generation MLL bcr oligonucleotide array containing replicate slots of each of 162 probes was created. The 162 probes included 73 probes for the non-repetitive MLL bcr sequences, 8 probes for the Alu region between nucleotide positions 663-1779 in the MLL bcr, 57 probes for MLL exon 25 which is unaffected by the translocations, and 24 probes for 9 bacterial control genes (see Tables 2 and 3; Tables 4 and 5 provide another example of a series of oligonucleotides that can be employed in a microarray). The 8.3 kb MLL bcr is represented by replicates of each of the 73 50 mers at average intervals of 115 bases to span the bcr. Because it has been well documented in the literature that the printing, general hybridization conditions, and scanning of microarrays introduce systemic effects that are related to the position on the chip, replicates of each of the probes in the array have been spaced throughout the chip.
Primary CD34+ selected human bone marrow cells were obtained through the NHLBI or purchased commercially. The cells were expanded ex vivo using conditions optimized to promote minimal differentiation in order to increase cell numbers as required to generate a useful model system.
DOP of the immunoaffinity-purified DNA topoisomerase II cleavage complexes from the treated and untreated cells was performed exactly as was done with the reference sample. […] Dye-swap experiments were also performed.
GeneSpring (Silicon Genetics, Redwood City, Calif.) was employed as a computational tool to visualize and analyze the data from MLL bcr XEOCHIPS™ with either treated or untreated samples in one channel and the reference sample in the other.
DOP-amplified DNA from the DNA topoisomerase II cleavage complexes in treated or untreated cells on separate chips was labeled with ALEXA FLUOR® 546. The MLL bcr reference sample was labeled with ALEXA FLUOR® 647. The null hypothesis represented by the straight line is that there is no effect at any probe, whereas upward departure points are potential hotspots and downward departure points are potential coldspots.

[8] = molecular target: T5, DNA topoisomerase II covalent complexes with MLL and other sequences in CD34+ cells (Homo sapiens, UniProt P11388); assay: Immunoaffinity purification, DOP amplification and real-time PCR of DNA topoisomerase IIα-bound DNA; assay type: cell-based
T5 construct: endogenous in cells; host or cells: primary human bone marrow CD34+ cells, expanded ex vivo

[9] = 20 μM, additional 10 min at 75° C.

T4 sequence (P11388 whole entry, one chain of several): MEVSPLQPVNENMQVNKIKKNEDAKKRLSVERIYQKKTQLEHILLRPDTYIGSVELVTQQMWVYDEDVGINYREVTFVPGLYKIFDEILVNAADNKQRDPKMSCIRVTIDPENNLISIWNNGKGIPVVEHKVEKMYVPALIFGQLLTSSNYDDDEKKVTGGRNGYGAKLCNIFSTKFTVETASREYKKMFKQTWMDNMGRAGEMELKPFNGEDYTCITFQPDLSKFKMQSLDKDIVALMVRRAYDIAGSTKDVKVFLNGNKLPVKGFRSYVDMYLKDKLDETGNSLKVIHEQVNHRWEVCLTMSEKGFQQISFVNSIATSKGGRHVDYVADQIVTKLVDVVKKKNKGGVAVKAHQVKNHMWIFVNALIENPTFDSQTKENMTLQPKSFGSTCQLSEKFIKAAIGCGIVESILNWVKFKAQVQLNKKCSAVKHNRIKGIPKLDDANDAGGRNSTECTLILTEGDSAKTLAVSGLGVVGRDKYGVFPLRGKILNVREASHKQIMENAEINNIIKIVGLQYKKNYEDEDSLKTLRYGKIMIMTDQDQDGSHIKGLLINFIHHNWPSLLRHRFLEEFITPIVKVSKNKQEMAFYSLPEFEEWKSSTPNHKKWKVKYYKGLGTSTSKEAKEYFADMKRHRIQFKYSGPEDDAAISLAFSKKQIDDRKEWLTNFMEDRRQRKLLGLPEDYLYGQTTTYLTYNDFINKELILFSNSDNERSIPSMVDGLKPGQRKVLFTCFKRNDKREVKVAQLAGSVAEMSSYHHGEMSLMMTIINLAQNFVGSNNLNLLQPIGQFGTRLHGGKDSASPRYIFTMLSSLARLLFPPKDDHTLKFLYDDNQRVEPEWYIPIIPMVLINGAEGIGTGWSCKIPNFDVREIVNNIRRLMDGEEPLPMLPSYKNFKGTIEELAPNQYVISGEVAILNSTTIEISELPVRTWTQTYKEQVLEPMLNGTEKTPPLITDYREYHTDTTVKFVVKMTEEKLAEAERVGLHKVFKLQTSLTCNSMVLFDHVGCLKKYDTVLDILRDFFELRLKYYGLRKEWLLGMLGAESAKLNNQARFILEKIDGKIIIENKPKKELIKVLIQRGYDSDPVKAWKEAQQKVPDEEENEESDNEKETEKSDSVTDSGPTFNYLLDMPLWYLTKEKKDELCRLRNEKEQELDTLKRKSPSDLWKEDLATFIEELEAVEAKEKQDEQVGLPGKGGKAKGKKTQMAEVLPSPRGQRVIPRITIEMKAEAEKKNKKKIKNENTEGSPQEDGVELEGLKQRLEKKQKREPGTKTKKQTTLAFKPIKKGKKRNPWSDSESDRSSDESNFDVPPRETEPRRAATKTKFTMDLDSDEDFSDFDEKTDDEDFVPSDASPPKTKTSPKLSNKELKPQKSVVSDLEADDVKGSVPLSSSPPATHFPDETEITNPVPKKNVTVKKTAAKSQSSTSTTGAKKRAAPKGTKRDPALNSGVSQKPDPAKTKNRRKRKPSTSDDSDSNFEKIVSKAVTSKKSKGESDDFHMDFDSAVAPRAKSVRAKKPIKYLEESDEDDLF
T1 sequence (P11388 whole entry, one chain of several): as above
Chain of human DNA topoisomerase IIα (P11388 whole entry): as the sequence (P11388 whole entry, one chain of several) above
Chain of DNA topoisomerase II cleavage complexes in CEM cells (P11388 whole entry, one chain of several): as above
T3 sequence (P11388 whole entry, one chain of several): as above
T2 sequence (P11388 whole entry, one chain of several): as above
T5 sequence (P11388 whole entry, one chain of several): as above

Structure (SMILES)	induction of DNA topoisomerase II cleavage complexes [1]	induction of DNA topoisomerase II covalent complexes [2]	cleavage at MLL bcr position 6588 over cleavage without drug (enzyme-only) ([3]; MLL intron 8 substrate)	induction of DNA topoisomerase II cleavage complexes [4]	formation of DNA topoisomerase II covalent complexes versus untreated cells [5]	cleavage at AF-4 intron 3 position 7126 relative to the strongest enzyme-only cleavage in the substrate (position 7114) ([3]; 20 μM, AF-4 intron 3 substrate)	rank in relative intensity of cleavage at AF-4 position 7126 among all cleavage sites ([3]; 20 μM, AF-4 intron 3 substrate)	potential coldspots for DNA topoisomerase II cleavage complexes (array probes), treated vs untreated [7]	potential hotspots for DNA topoisomerase II cleavage complexes (array probes), treated vs untreated [7]	also measured
COc1cccc2c1C(=O)c1c(O)c3c(c(O)c1C2=O)C[C@@](O)(C(=O)CO)C[C@@H]3O[C@H]1C[C@H](N)[C@H](O)[C@H](C)O1 [doxorubicin]	no induction	induced DNA II covalent complexes	0.4 fold	no induction						cleavage over enzyme-only cleavage at MLL bcr positions 4675 and 4673 and GAS7 position 1238 ([3]; 0.01 μM): quantifiably enhanced cleavage; effect on cleavage at MLL bcr position 6588 over a range of concentrations ([3]; 0.01 μM to 0.5 μM): dose-dependent increases over enzyme-only cleavage; cleavage at MLL 4675, 4673 and GAS7 1238 at high concentration ([3]; 20 μM): complete diminution; cleavage at AF-4 intron 3 position 7126 ([3]; 20 μM or lower concentrations, AF-4 intron 3 substrate): no detectable cleavage; concentration at which cleavage at AF-4 positions 7111, 7114 and 7119 began to decrease ([3]; AF-4 intron 3 substrate): 0.5 µM; effect on cleavage at AF-4 intron 3 positions 7111, 7114 and 7119 over a range of concentrations ([3]; AF-4 intron 3 substrate): dose-dependent increases in cleavage stimulation over enzyme-only cleavage; concentration at which cleavage enhancement at MLL 4675, 4673 and GAS7 1238 began to decrease ([3]; MLL and GAS7 substrates): 0.1 µM; concentration at which cleavage enhancement at MLL bcr position 6588 began to decrease ([3]; MLL intron 8 substrate): 2.5 µM; effect on cleavage at MLL bcr positions 6587 and 6589 ([3]; all concentrations tested): only catalytic inhibition
COc1cc([C@@H]2c3cc4c(cc3[C@@H](O[C@@H]3O[C@@H]5CO[C@@H](C)O[C@H]5[C@H](O)[C@H]3O)[C@H]3COC(=O)[C@H]23)OCO4)cc(O)c1O [etoposide catechol]			4.4 fold	significant induction	increased formation of topoisomerase-DNA cleavage complexes	5.9 fold	first			amount of cleavage complexes induced compared with etoposide [4]: comparable in amount to the parent drug
COC1=CC(C2c3cc4c(cc3C(O[C@@H]3O[C@@H]5COC(C)O[C@H]5[C@H](O)[C@H]3O)C3COC(=O)C23)OCO4)=CC(=O)C1=O (stereo partly drawn) [etoposide quinone]	Induction of DNA cleavage complexes was also observed		9.8 fold	significant induction		3.4 fold	5th			concentration dependence of induction of DNA topoisomerase II cleavage complexes ([1]; 2 hours): concentration dependent increase; rank of cleavage at MLL bcr position 6588 among cleavage sites in the substrate ([3]; 20 μM, MLL intron 8 substrate): 3rd
COc1cc([C@@H]2c3cc4c(cc3[C@@H](O[C@@H]3O[C@@H]5CO[C@@H](C)O[C@H]5[C@H](O)[C@H]3O)[C@H]3COC(=O)[C@H]23)OCO4)cc(OC)c1O [etoposide]	Induction of DNA cleavage complexes was also observed	induced DNA II covalent complexes	7.9 fold	significant induction	increased formation of DNA topoisomerase II covalent complexes			probes 2-28, 1-30, 1-18, and 1-15	probes 1-41 and 1-51	cell viability assessed by Trypan blue exclusion [6]: ~70%; heat stability of cleavage at AF-4 intron 3 position 7126 [3, 9]: especially heat-stable; heat stability of cleavage complexes at MLL bcr position 6588 [3, 9]: remained detectable after heating
O=c1c(-c2ccc(O)cc2)coc2cc(O)cc(O)c12 [genistein]								probes 1-31 (SEQ ID NO: 27), 2-50 (SEQ ID NO: 162), 1-74 (SEQ ID NO: 62), 2-28 (SEQ ID NO: 34), 1-10 (SEQ ID NO: 83), and 1-22 (SEQ ID NO: 71)	Probes 1-68 (SEQ ID NO: 157), 1-41 (SEQ ID NO: 49), 1-51 (SEQ ID NO: 141), and 1-33 (SEQ ID NO: 132)	real-time PCR products, MLL intron 7-exon 8 amplicon [8]: real-time PCR products that were detected
